Source: patent publication US9115072B2, “Compounds and method for reducing uric acid” (WELLSTAT THERAPEUTICS CORPORATION, priority 2008, dated 2015)
Several values for one entry are separate records, joined by “and”; a condition that tells them apart may be missing. Equal values may be shown once.

Key:
[1] = Rat oral single-dose pharmacokinetic study; assay type: in vivo; conditions: 100 mg/kg single oral gavage
Description: (§1) • 1. Male Sprague-Dowley rats received single oral gavage of Compound EH, 100 mg/kg, and plasma was collected at certain times. • 2. Rat plasma was stored at −80° C. until the day of analysis. • 3. Samples were thawed on 37° C. bath for 5 min and vortexed at top speed for 10 sec. • 4. Rat plasma, 0.1 mL was mixed with 0.2 mL Acetonitrile, vortexed 1 min, spun down 14000 rpm, 17000 g, at 4° C., for 25 min. • 5. Supernatants were filtered through 0.45 micron, 4 mm, PTFE membrane syringe filter (Phenomenex #AF0-3102-52), and 15 microL were injected and resolved on Luna 3 micron, 100 A pore, C8(2), 150×3 mm, reverse phase column (Phenomenex#00F-4248-YO, SN#259151-7) in 50 min linear gradient from 40% to 69% of (0.1% Formic Acid, 89.9% Acetonitrile, 10% Methanol) at 0.25 mL/min, 107 bar, 37° C. column temperature, method 406975M1, Sequence 0226-09A, Agilent 1100 LC-MS.
(§2) All samples were run in duplicate, 210 nm and 230 nm Absorbances, Negative and Positive ionization spectrograms recorded.
Step 1. Rat plasma from V2 and V3 animals (“vehicle”, pooled), 0.19 mL, was mixed with 0.01 mL 20× stock of Compound EH in Methanol to make 500 microM, 250 microM, 125 microM, . . . , concentrations of Compound EH in plasma.
For example: 190 microL plasma+10 microL of 10 mM Compound EH in methanol=0.2 mL plasma with 500 microM Compound EH.
Step 2. Samples from step 1 were vortexed for 10 sec at top speed.
Step 3. 0.4 mL of acetonitrile was added to all samples from Step 2, and all vials were vortexed at top speed for 1 min.
Step 4. All samples from step 3 were spun down 14000 rpm, 17000 g, at 4° C., for 25 min.
Step 5. Supernatants were filtered through 0.45 micron, 4 mm, PTFE membrane syringe filter (Phenomenex #AF0-3102-52), 15 microL were injected and resolved on Luna 3 micron, 100 A pore, C8(2), 150×3 mm, reverse phase column

[2] = Mouse oral single-dose pharmacokinetic study; assay type: in vivo; conditions: for Compound EH Concentration in mouse PLASMA: individual mice; for Compound EH concentr., mean: Data from Sigma Stat
Description: as §1, with “1. Mice” for “1. Male Sprague-Dowley rats”, “2. Plasma” for “2. Rat plasma”, “4. Mouse” for “4. Rat”, “column (Phenomenex#00E-4248-YO,” for “column (Phenomenex#00F-4248-YO,”, “mL/min, 100” for “mL/min, 107”, “Sequence 0205-09A,” for “Sequence 0226-09A,”
as §2
• Step 1. Plasma from “Vehicle” animals (pooled), 0.19 mL, was mixed with 0.01 mL 20× stock of Compound EH in Methanol to make 500 microM, 250 microM, 125 microM, . . . , concentrations of Compound EH in plasma. • For example: 190 microL plasma+10 microL of 10 mM Compound EH in methanol=0.2 mL plasma with 500 microM Compound EH. • Step 2. Samples from step 1 were vortexed for 10 sec at top speed. • Step 3. 0.4 mL of acetonitrile was added to all samples from Step 2, and all vials were vortexed at top speed for 1 min • Step 4. All samples from step 3 were spun down 14000 rpm, 17000 g, at 4° C., for 25 min. • Step 5. Supernatants were filtered through 0.45 micron, 4 mm, PTFE membrane syringe filter (Phenomenex #AF0-3102-52), 15 microL were injected and resolved on Luna 3 micron, 100 A pore, C8(2), 150×3 mm, reverse phase column

For `Cc1ccc(CC(=O)O)cc1OCc1c(C)cccc1C` [Compound EH, 2-(3-(2,6-Dimethylbenzyloxy)-4-methylphenyl)acetic acid], the concentration at 0 h ([1]; male, Sprague-Dawley, rat, plasma, time 0 HR, read-out: Compound EH concentration in rat plasma) was 0 nM, the concentration at 0.25 h ([1]; male, Sprague-Dawley, rat, plasma, time 0.25 HR, read-out: Compound EH concentration in rat plasma) was 349 µM and the concentration at 0.5 h ([1]; male, Sprague-Dawley, rat, plasma, time 0.5 HR, read-out: Compound EH concentration in rat plasma) was 723 µM. The concentration at 2 h ([1]; male, Sprague-Dawley, rat, plasma, time 2 HR, read-out: Compound EH concentration in rat plasma) was 79 µM, the concentration at 4 h ([1]; male, Sprague-Dawley, rat, plasma, time 4 HR, read-out: Compound EH concentration in rat plasma) was 126 µM and the concentration at 6 h ([1]; male, Sprague-Dawley, rat, plasma, time 6 HR, read-out: Compound EH concentration in rat plasma) was 112 µM. The concentration at 8 h ([1]; male, Sprague-Dawley, rat, plasma, time 8 HR, read-out: Compound EH concentration in rat plasma) was 48 µM, the concentration at 24 h ([1]; male, Sprague-Dawley, rat, plasma, time 24 HR, read-out: Compound EH concentration in rat plasma) was 0 nM and the Cmax ([1]; male, Sprague-Dawley, rat plasma) was 723 µM. The “AUC(0-24)” value ([1]; rat plasma) was 1765 µM·h, the “Compound EH Concentration in mouse PLASMA” value (from here on “Compound EH Concentration”) ([2]; 100 mg/kg single oral gavage, bleed time 0.5 HR, 100 mg/kg) was 430 µM and 342 µM and 523 µM and the “Compound EH Concentration” value ([2]; 100 mg/kg single oral gavage, bleed time 1 HR, 100 mg/kg) was 467 µM and 447 µM and 406 µM. For the same compound, the “Compound EH Concentration” value ([2]; 100 mg/kg single oral gavage, bleed time 2 HR, 100 mg/kg) was 178 µM and 238 µM and 241 µM, the “Compound EH Concentration” value ([2]; 100 mg/kg single oral gavage, bleed time 4 HR, 100 mg/kg) was 148 µM and 154 µM and 134 µM and the “Compound EH Concentration” value ([2]; 100 mg/kg single oral gavage, bleed time 6 HR, 100 mg/kg) was 93 µM and 268 µM and 231 µM. The “Compound EH Concentration” value ([2]; 100 mg/kg single oral gavage, bleed time 8 HR, 100 mg/kg) was 95 µM and 147 µM and 187 µM, the “Compound EH Concentration” value ([2]; 100 mg/kg single oral gavage, bleed time 12 HR, 100 mg/kg) was 79 µM and 36 µM and 74 µM and the “Compound EH Concentration” value ([2]; 100 mg/kg single oral gavage, bleed time 16 HR, 100 mg/kg) was 25 µM and 61 µM. For the same compound, the “Compound EH Concentration” value ([2]; 100 mg/kg single oral gavage, bleed time 24 HR, 100 mg/kg) was 40 µM and 26 µM and 0.74 µM, the “Compound EH Concentration” value ([2]; 100 mg/kg single oral gavage, bleed time 48 HR) was 0 µM and the “Compound EH concentr., mean” value ([2]; mouse plasma, 100 mg/kg oral, time bleed 0 HR) was 0 µM. For the same compound, the “Compound EH concentr., mean” value ([2]; mouse plasma, 100 mg/kg oral, time bleed 0.5 HR) was 431.7 µM, the “Compound EH concentr., mean” value ([2]; mouse plasma, 100 mg/kg oral, time bleed 1 HR) was 440 µM and the “Compound EH concentr., mean” value ([2]; mouse plasma, 100 mg/kg oral, time bleed 2 HR) was 219 µM. The “Compound EH concentr., mean” value ([2]; mouse plasma, 100 mg/kg oral, time bleed 4 HR) was 145.3 µM, the “Compound EH concentr., mean” value ([2]; mouse plasma, 100 mg/kg oral, time bleed 6 HR) was 197.3 µM and the “Compound EH concentr., mean” value ([2]; mouse plasma, 100 mg/kg oral, time bleed 8 HR) was 143 µM. For the same compound, the “Compound EH concentr., mean” value ([2]; mouse plasma, 100 mg/kg oral, time bleed 12 HR) was 63 µM, the “Compound EH concentr., mean” value ([2]; mouse plasma, 100 mg/kg oral, time bleed 16 HR) was 43 µM and the “Compound EH concentr., mean” value ([2]; mouse plasma, 100 mg/kg oral, time bleed 24 HR) was 22.247 µM. For the same compound, the “Compound EH concentr., mean” value ([2]; mouse plasma, 100 mg/kg oral, time bleed 48 HR) was 0 µM, the Cmax ([2]; mouse plasma, 100 mg/kg single oral gavage) was 440 µM and the concentration at 0 h ([2]; mouse, plasma, 100 mg/kg oral, Time 0 HR, Table 13, read-out: Cpd. EH (mouse plasma concentration)) was 0 nM. The concentration at 0.5 h ([2]; mouse, plasma, 100 mg/kg oral, Time 0.5 HR, Table 13, read-out: Cpd. EH (mouse plasma concentration)) was 432 µM, the concentration at 1 h ([2]; mouse, plasma, 100 mg/kg oral, Time 1 HR, Table 13, read-out: Cpd. EH (mouse plasma concentration)) was 440 µM and the concentration at 2 h ([2]; mouse, plasma, 100 mg/kg oral, Time 2 HR, Table 13, read-out: Cpd. EH (mouse plasma concentration)) was 219 µM. It also gave a concentration at 4 h ([2]; mouse, plasma, 100 mg/kg oral, Time 4 HR, Table 13, read-out: Cpd. EH (mouse plasma concentration)) of 145 µM, a concentration at 6 h ([2]; mouse, plasma, 100 mg/kg oral, Time 6 HR, Table 13, read-out: Cpd. EH (mouse plasma concentration)) of 197 µM and a concentration at 8 h ([2]; mouse, plasma, 100 mg/kg oral, Time 8 HR, Table 13, read-out: Cpd. EH (mouse plasma concentration)) of 143 µM. The concentration at 12 h ([2]; mouse, plasma, 100 mg/kg oral, Time 12 HR, Table 13, read-out: Cpd. EH (mouse plasma concentration)) was 63 µM, the concentration at 16 h ([2]; mouse, plasma, 100 mg/kg oral, Time 16 HR, Table 13, read-out: Cpd. EH (mouse plasma concentration)) was 43 µM and the concentration at 24 h ([2]; mouse, plasma, 100 mg/kg oral, Time 24 HR, Table 13, read-out: Cpd. EH (mouse plasma concentration)) was 22 µM. The concentration at 48 h ([2]; mouse, plasma, 100 mg/kg oral, Time 48 HR, Table 13, read-out: Cpd. EH (mouse plasma concentration)) was 0 nM.
